Some test systems named below: UO-31 renal; SN12C renal; UACC-62 melanoma; U251 CNS; MDA-MB-435; MALME-3M melanoma; HCC-2998 colon; M14 melanoma; RXF 393 renal.
Holding throughout (assay): NCI anticancer screen, dose series, 48 h

Each structure is given as a SMILES string.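 Method: 48-hour compound exposure of cells in 96-well plates, five concentrations, linear interpolation of endpoints. TGI marks complete inhibition of growth.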 Where a SMILES comes first, the peptide text is derived from it. [ ]: non-standard residue; d: D form. The star is where a group is joined. hSer = N[CH](CCO)C(=O)O; Boc = CC(C)(C)OC(=O)* A value given as a limit tells only on which side of the number the result lay.

As to `CCOC(=O)c1nc2c3c(ncn2n1)Oc1c(c(-c2ccccc2)nn1-c1ccccc1)C3c1ccc(OC)c(OC)c1` (stereo not drawn), the TGI in the assay with UO-31 renal, in the assay on SN12C renal, with UACC-62 melanoma, in the assay on U251 CNS, with MDA-MB-435 and in the assay with MALME-3M melanoma was more than 100 µM in each case. The results for the TGI in the assay with HCC-2998 colon, in the assay with M14 melanoma and with RXF 393 renal were more than 100 µM, more than 100 µM and 91.4 µM, respectively.

Regarding `NC1=CN(CCCO)C2=N/C(=C\c3ccco3)C(=O)N12`, the TGI in the assay on UO-31 renal, in the assay on SN12C renal, in the assay on UACC-62 melanoma, in the assay with U251 CNS, in the assay with MDA-MB-435 and in the assay on MALME-3M melanoma was more than 100 µM each time. Besides, the TGI in the assay on HCC-2998 colon, with M14 melanoma and in the assay with RXF 393 renal was more than 100 µM in each case.

Turning to `COCCC(NC(=O)C(CC(C)C)NC(=O)OC(C)(C)C)C(N)=O` (stereo not drawn) (Boc-Leu-[hSer](Me)-NH2; configuration not given here), the TGI with UO-31 renal, in the assay on SN12C renal, with UACC-62 melanoma, in the assay with U251 CNS, with MDA-MB-435 and with MALME-3M melanoma was more than 100 µM each time. Besides, the TGI with HCC-2998 colon, in the assay with M14 melanoma and with RXF 393 renal was more than 100 µM throughout.

For the compound `c1ccc(COc2ccc(C[P+](c3ccccc3)(c3ccccc3)c3ccccc3)cc2)cc1`, the TGI is 11 µM in the assay with UO-31 renal; 5.03 µM in the assay with SN12C renal; 1.74 µM in the assay with UACC-62 melanoma; 11.8 µM with U251 CNS; 1.7 µM with MDA-MB-435; 1.82 µM in the assay with MALME-3M melanoma. The figures for the TGI in the assay on HCC-2998 colon, in the assay with M14 melanoma and in the assay with RXF 393 renal were 4.81 µM, 4.97 µM and 0.361 µM, respectively.

On to `N#Cc1[nH]c(=O)n(-c2ccc([N+](=O)[O-])cc2)c1N`, for which the TGI in the assay on UO-31 renal, with SN12C renal, in the assay with UACC-62 melanoma, with U251 CNS, in the assay on MDA-MB-435 and in the assay with MALME-3M melanoma was more than 10 µM each time. For the same compound, the TGI in the assay with HCC-2998 colon, in the assay with M14 melanoma and with RXF 393 renal was more than 10 µM throughout.

`CCOC(=O)NNC(=O)NCCNC(=O)NNC(=O)OCC`: the TGI in the assay with UO-31 renal, in the assay on SN12C renal, in the assay on UACC-62 melanoma, in the assay on U251 CNS, in the assay on MDA-MB-435 and with MALME-3M melanoma was more than 100 µM in each case. The TGI in the assay with HCC-2998 colon, with M14 melanoma and with RXF 393 renal was more than 100 µM in each case.

Turning to `O=[N+]([O-])/C(C(Cl)=C(Cl)Cl)=C1\Nc2ccccc2O1`, the TGI was 30.6 µM in the assay with UO-31 renal; more than 100 µM in the assay with SN12C renal; more than 100 µM in the assay on UACC-62 melanoma; more than 100 µM with U251 CNS; more than 100 µM with MDA-MB-435; more than 100 µM with MALME-3M melanoma. Moreover, the TGI with HCC-2998 colon, in the assay with M14 melanoma and with RXF 393 renal was more than 100 µM throughout.

As for `Cc1c2c(n3c(nc4ccccc43)c1C#N)N(c1ccc(Cl)cc1)CC2`, the TGI with UO-31 renal, in the assay on SN12C renal, in the assay on UACC-62 melanoma, with U251 CNS, in the assay with MDA-MB-435 and in the assay on MALME-3M melanoma was more than 100 µM in each case. Further, the TGI with HCC-2998 colon, in the assay with M14 melanoma and with RXF 393 renal was more than 100 µM each time.

As to `N#CC(c1ccc(O)cc1)N1CCN(C(C#N)c2ccc(O)cc2)CC1` (stereo not drawn), the TGI is more than 100 µM with UO-31 renal; more than 100 µM in the assay with SN12C renal; more than 100 µM in the assay with UACC-62 melanoma; 51.9 µM in the assay with U251 CNS; more than 100 µM with MDA-MB-435; more than 100 µM in the assay on MALME-3M melanoma. In addition, the values for the TGI in the assay with HCC-2998 colon, in the assay with M14 melanoma and with RXF 393 renal were more than 100 µM, more than 100 µM and more than 92.5 µM, respectively.

For `COC(=O)OC[C@H]1O[C@@H](n2cc(C)c(=O)[nH]c2=O)CC1OC(=O)OC` (stereo partly drawn), the TGI in the assay with UO-31 renal, in the assay on SN12C renal, in the assay on UACC-62 melanoma, in the assay with U251 CNS, in the assay on MDA-MB-435 and in the assay on MALME-3M melanoma was more than 100 µM in each case. Further, the TGI in the assay on HCC-2998 colon, in the assay with M14 melanoma and with RXF 393 renal was more than 100 µM in each case.

For `N/C(CC/C(N)=N\O)=N\O`, the TGI in the assay on UO-31 renal, in the assay on SN12C renal, in the assay on UACC-62 melanoma, with U251 CNS, in the assay with MDA-MB-435 and in the assay with MALME-3M melanoma was more than 100 µM throughout. For the same compound, the TGI in the assay on HCC-2998 colon, with M14 melanoma and in the assay with RXF 393 renal was more than 100 µM in each case.

Take `CC(C)CN1CN(c2ccccc2)C2(CCN(CC(C)(c3ccc(F)cc3)C3OCCO3)CC2)C1=O` (stereo not drawn): the TGI in the assay on UO-31 renal turned out to be 9.77 µM; with SN12C renal, 19.1 µM; in the assay on UACC-62 melanoma, 26.3 µM; in the assay with U251 CNS, 17.2 µM; with MDA-MB-435, 23.5 µM; in the assay with MALME-3M melanoma it was 17.2 µM. For the same compound, the TGI in the assay on HCC-2998 colon amounted to 8.52 µM; in the assay on M14 melanoma, 8.46 µM; in the assay on RXF 393 renal, 21.9 µM.
